Data: patent US11730720B2, “ALK5 inhibitors” (THERAVANCE BIOPHARMA R&D IP, LLC, priority 2018, dated 2023)

Key:
[1] = tested on: TGF-β-stimulated SMAD3 phosphorylation in BEAS-2B cells; experiment: Cellular ALK5 potency assay, inhibition of TGF-β stimulated pSMAD3 formation in BEAS-2B cells; format: cell-based; conditions: Homo sapiens, inhibition of TGF-β (10 ng/mL) stimulated pSMAD3 formation, 1 hour compound incubation, read-out: BEAS2B pIC50 (converted)
In short: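 Phospho-SMAD3 was quantified by AlphaLISA in lysates of human lung epithelial BEAS-2B cells. Compound was added 1 h (37 °C, HEPES/BSA-supplemented HBSS) before a 30 min challenge with 10 ng/mL TGF-β. Values are pIC50 relative to stimulated cells without compound.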

[2] = target: T1, recombinant human ALK5 (TGF-βR1) protein (Homo sapiens, UniProt P36897); experiment: Biochemical ALK5 (TGF-βR1) assay to measure pKi (LANCE Ultra ULight kinase assay); conditions: apparent pKi, converted from pIC50 using the Cheng-Prusoff equation
T1 construct: purchased Life Technologies PR9075A
T1 sequence (P36897 34-503): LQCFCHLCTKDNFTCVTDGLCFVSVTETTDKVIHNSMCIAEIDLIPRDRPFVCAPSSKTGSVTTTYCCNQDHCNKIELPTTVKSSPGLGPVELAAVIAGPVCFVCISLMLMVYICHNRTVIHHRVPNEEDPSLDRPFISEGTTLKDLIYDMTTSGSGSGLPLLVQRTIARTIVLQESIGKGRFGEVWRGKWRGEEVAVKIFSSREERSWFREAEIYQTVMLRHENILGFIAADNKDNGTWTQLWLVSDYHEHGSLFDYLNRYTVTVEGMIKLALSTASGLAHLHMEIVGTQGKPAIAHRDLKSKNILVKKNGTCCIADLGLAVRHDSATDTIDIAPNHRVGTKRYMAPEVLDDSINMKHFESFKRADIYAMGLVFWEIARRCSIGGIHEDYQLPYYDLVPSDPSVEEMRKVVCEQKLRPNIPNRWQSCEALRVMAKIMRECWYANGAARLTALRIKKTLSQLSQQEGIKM
In short: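 TR-FRET kinase format: compound dose range 10 μM–25 pM equilibrated 60 min with human ALK5 and ULight-labelled topoisomerase 2α peptide in HEPES/MgCl2 buffer pH 7.5 with DTT. Reaction started with ATP (125 μM stock, 5× final), 60 min at 37° C, stopped with EDTA/Eu-anti-phospho antibody; pKi derived from pIC50 via Cheng-Prusoff.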

Ki [2] [nM]	Structure (SMILES)	IC50 [1] [nM]
0.398 to 3.16	O=Cc1cnc2ccc(-c3c[nH]nc3-c3cc(Cl)ccc3F)nc2c1 [Compound 1-101, 6-[3-(5-chloro-2-fluoro-phenyl)-1H-pyrazol-4-yl]-1,5-naphthyridine-3-carbaldehyde]	≤ 20
0.0398 to 0.316	Fc1ccc(Cl)cc1-c1n[nH]cc1-c1ccc2ncc(NC[C@@H]3CCCN3)cc2n1 [Compound 1-20, 6-[3-(5-chloro-2-fluoro-phenyl)-1H-pyrazol-4-yl]-N-[[(2S)-pyrrolidin-2-yl]methyl]-1,5-naphthyridin-3-amine]	≤ 20
0.0398 to 0.316	CN(C)C1CCN(c2cnc3ccc(-c4c(-c5cc(Cl)ccc5F)nc5ccccn45)cc3c2)C1 (racemic) [Compound 19-7, rac-(3S)-1-[6-[2-(5-chloro-2-fluoro-phenyl)imidazo[1,2-a]pyridin-3-yl]-3-quinolyl]-N,N-dimethyl-pyrrolidin-3-amine]	200 to 1260
0.0398 to 0.316	Fc1cc(F)c(-c2n[nH]cc2-c2ccc3ncc(-c4ncn5c4CNCC5)cc3n2)cc1Cl [Compound 6-49, 2-[3-(5-chloro-2,4-difluoro-phenyl)-1H-pyrazol-4-yl]-7-(5,6,7,8-tetrahydroimidazo[1,5-a]pyrazin-1-yl)-1,5-naphthyridine]	25.1 to 158
0.0398 to 0.316	Fc1ccc(Cl)cc1-c1n[nH]cc1-c1ccc2ncc(N3CC(N4CCCCC4)C3)cc2n1 [Compound 1-40, 2-[3-(5-chloro-2-fluoro-phenyl)-1H-pyrazol-4-yl]-7-[3-(1-piperidyl)azetidin-1-yl]-1,5-naphthyridine]	25.1 to 158
3.98 to 31.6	CN1C[C@H]2C[C@@H]1CN2c1cnc2ccc(-c3c[nH]nc3-c3cc(Cl)ccc3F)nc2c1 (racemic) [Compound 1-42, 2-[3-(5-chloro-2-fluoro-phenyl)-1H-pyrazol-4-yl]-7-[rac-(1R,4R)-5-methyl-2,5-diazabicyclo[2.2.1]heptan-2-yl]-1,5-naphthyridine]	25.1 to 158
0.0398 to 0.316	CNC(=O)C1CN(c2cnc3ccc(-c4c[nH]nc4-c4cc(Cl)ccc4F)nc3c2)CCN1C (racemic) [Compound 1-77, rac-(2R)-4-[6-[3-(5-chloro-2-fluoro-phenyl)-1H-pyrazol-4-yl]-1,5-naphthyridin-3-yl]-N,1-dimethyl-piperazine-2-carboxamide]	25.1 to 158
≤ 0.0316	CN1CC=C(c2cnc3ccc(-c4c[nH]nc4-c4cc(Cl)ccc4F)nc3c2)C1 [Compound 1-97, 2-[3-(5-chloro-2-fluoro-phenyl)-1H-pyrazol-4-yl]-7-(1-methyl-2,5-dihydropyrrol-3-yl)-1,5-naphthyridine]	≤ 20
0.0398 to 0.316	CC(C)N1CC2CN(c3cnc4ccc(-c5c[nH]nc5-c5cc(Cl)ccc5F)nc4c3)CC21 (stereo not shown) [Compound 1-70, 2-(3-(5-chloro-2-fluorophenyl)-112-pyrazol-4-yl)-7-(6-isopropyl-3,6-diazabicyclo[3.2.0]heptan-3-yl)-1,5-naphthyridine]	25.1 to 158
0.398 to 3.16	O=C(NCc1ccccc1)[C@H]1CN(c2cnc3ccc(-c4c[nH]nc4-c4cc(Cl)ccc4F)nc3c2)CCN1 [Compound 1-67, (2R)-N-benzyl-4-[6-[3-(5-chloro-2-fluoro-phenyl)-1H-pyrazol-4-yl]-1,5-naphthyridin-3-yl]piperazine-2-carboxamide]	25.1 to 158
0.0398 to 0.316	CC(C)N1CCN(CCNc2cnc3ccc(-c4nc[nH]c4-c4cc(Cl)c(F)cc4F)nc3c2)CC1 [Compound 7-2, 6-[5-(5-chloro-2,4-difluoro-phenyl)-1H-imidazol-4-yl]-N-[2-(4-isopropylpiperazin-1-yl)ethyl]-1,5-naphthyridin-3-amine]	25.1 to 158
0.398 to 3.16	Fc1cc(F)c(-c2n[nH]cc2-c2ccc3ncc(-c4nnc5n4CCN5)cc3n2)cc1Cl [Compound 6-64, 2-[3-(5-chloro-2,4-difluoro-phenyl)-1H-pyrazol-4-yl]-7-(6,7-dihydro-5H-imidazo[2,1-c][1,2,4]triazol-3-yl)-1,5-naphthyridine]	200 to 1260
0.398 to 3.16	CNCCn1ccc(-c2cnc3ccc(-c4c[nH]nc4-c4ccc(F)c(F)c4)nc3c2)n1 [Compound 8-14, 2-[3-[6-[3-(3,4-difluorophenyl)-1H-pyrazol-4-yl]-1,5-naphthyridin-3-yl]pyrazol-1-yl]-N-methyl-ethanamine]	25.1 to 158
0.0398 to 0.316	Fc1ccc(Cl)cc1-c1nc2ccccn2c1-c1ccc2ncc(-c3cnn(C4CCCNC4)c3)cc2c1 (stereo not shown) [Compound 19-2, 6-[2-(5-chloro-2-fluoro-phenyl)imidazo[1,2-a]pyridin-3-yl]-3-[1-(3-piperidyl)pyrazol-4-yl]quinoline]	200 to 1260
0.0398 to 0.316	COC(=O)C1CN(CCNc2cnc3ccc(-c4c[nH]nc4-c4cc(Cl)ccc4F)nc3c2)CCN1 (stereo not shown) [Compound 1-22, methyl 4-[2-[[6-[3-(5-chloro-2-fluoro-phenyl)-1H-pyrazol-4-yl]-1,5-naphthyridin-3-yl]amino]ethyl]piperazine-2-carboxylate]	25.1 to 158
0.0398 to 0.316	Fc1ccc(Cl)cc1-c1n[nH]cc1-c1ccc2ncc(NCC3CN4CCN3CC4)cc2n1 (stereo not shown) [Compound 1-10, 6-[3-(5-chloro-2-fluoro-phenyl)-1H-pyrazol-4-yl]-N-(1,4-diazabicyclo[2.2.2]octan-2-ylmethyl)-1,5-naphthyridin-3-amine]	≤ 20
0.0398 to 0.316	CN(C)C1CC=C(c2cnc3ccc(-c4c[nH]nc4-c4ccc(F)c(F)c4)nc3c2)CC1 (stereo not shown) [Compound 8-25, 4-[6-[3-(3,4-difluorophenyl)-1H-pyrazol-4-yl]-1,5-naphthyridin-3-yl]-N,N-dimethyl-cyclohex-3-en-1-amine]	25.1 to 158
0.0398 to 0.316	Fc1ccc(Cl)cc1-c1n[nH]cc1-c1ccc2ncc(N3CCC(N4CCCCC4)C3)cc2n1 (racemic) [Compound 1-39, 2-[3-(5-chloro-2-fluoro-phenyl)-1H-pyrazol-4-yl]-7-[rac-(3R)-3-(1-piperidyl)pyrrolidin-1-yl]-1,5-naphthyridine]	≤ 20
0.0398 to 0.316	Fc1ccc(Cl)cc1-c1n[nH]cc1-c1ccc2ncc(NCCN3CCNCC3)cc2n1 [Compound 1-21, 6-[3-(5-chloro-2-fluoro-phenyl)-1H-pyrazol-4-yl]-N-(2-piperazin-1-ylethyl)-1,5-naphthyridin-3-amine]	25.1 to 158
0.398 to 3.16	COC(=O)[C@@H]1CN(c2cnc3ccc(-c4c[nH]nc4-c4cc(Cl)ccc4F)nc3c2)CCN1 [Compound 1-59, methyl (2S)-4-[6-[3-(5-chloro-2-fluoro-phenyl)-1H-pyrazol-4-yl]-1,5-naphthyridin-3-yl]piperazine-2-carboxylate]	25.1 to 158
0.0398 to 0.316	O=C(NCCN1CCCC1)[C@H]1CN(c2cnc3ccc(-c4c[nH]nc4-c4cc(Cl)ccc4F)nc3c2)CCN1 [Compound 1-132, (2R)-4-[6-[3-(5-chloro-2-fluoro-phenyl)-1H-pyrazol-4-yl]-1,5-naphthyridin-3-yl]-N-(2-pyrrolidin-1-ylethyl)piperazine-2-carboxamide]	200 to 1260
0.0398 to 0.316	Fc1ccc(Cl)cc1-c1n[nH]cc1-c1ccc2ncc(-c3nnc4n3CCN4)cc2n1 [Compound 1-110, 2-[3-(5-chloro-2-fluoro-phenyl)-1H-pyrazol-4-yl]-7-(6,7-dihydro-5H-imidazo[2,1-c][1,2,4]triazol-3-yl)-1,5-naphthyridine]	200 to 1260
0.398 to 3.16	Fc1ccc(Cl)cc1-c1n[nH]cc1-c1ccc2ncc(N3CC4CNCC43)cc2n1 (stereo not shown) [Compound 1-54, 2-[3-(5-chloro-2-fluoro-phenyl)-1H-pyrazol-4-yl]-7-(3,6-diazabicyclo[3.2.0]heptan-6-yl)-1,5-naphthyridine]	25.1 to 158
0.0398 to 0.316	CNCCn1cc(-c2cnc3ccc(-c4c(-c5cc(Cl)ccc5F)nnn4Cc4cccnc4)cc3c2)cn1 [Compound 20-1, 2-(4-(6-(4-(5-chloro-2-fluorophenyl)-1-(pyridin-3-ylmethyl)-1H-1,2,3-triazol-5-yl)quinolin-3-yl)-1H-pyrazol-1-yl)-N-methylethan-1-amine]	25.1 to 158
3.98 to 31.6	Fc1ccc(-c2[nH]cnc2-c2ccc3ncc(NCCN4CCNCC4)cc3c2)cc1F [Compound 23-5, 6-[5-(3,4-difluorophenyl)-1H-imidazol-4-yl]-N-(2-piperazin-1-ylethyl)quinolin-3-amine]	200 to 1260
3.98 to 31.6	Fc1ccc(Cl)cc1-c1[nH]nnc1-c1ccc2ncc(-c3c[nH]nc3C(F)(F)F)cc2n1 [Compound 5-2, 2-(5-(5-chloro-2-fluorophenyl)-1H-1,2,3-triazol-4-yl)-7-(3-(trifluoromethyl)-1H-pyrazol-4-yl)-1,5-naphthyridine]	25.1 to 158
